We go through six compounds from US20240209028A1, “CNP COMPOUNDS” (priority 2022, published 2024).

Values after ≈ are worked out from the molar mass of the structure shown. Starred links: 1 amine or outer side, 2 acyl side, 3 side chain; linkers in the order of their positions; H or OH if unused. Positions of bridges follow the written chain, without caps; N, C: chain ends. Residues, ends and D or L forms follow the SMILES beside them. *: point of attachment. C18 diacid = O=C(O)CCCCCCCCCCCCCCCCC(=O)*; γGlu = O=C(O)[C@H](CCC(=O)[*:2])N[*:1]; AEEA = NCCOCCOCC(=O)O

The first data set in a line: Solubility of CNP compounds at pH 4.0 and pH 6.5. Type of data set: physicochemical. The note with it: 8 mM sodium phosphate, 23 mg/mL glycerol, pH 6.5, room temperature; read-out: Solubility at pH 6.5. The method, then:
In order to assess the suitability of CNP compounds for a soluble liquid formulation, the solubility of CNP compounds in pharmaceutically relevant buffers were measured. Solubility at two different pH-levels (pH 4.0 and pH 6.5) was examined as pH is expected to affect solubility.
Preparation of pH 4.0 samples: The pH 4.0 samples of the CNP compounds were prepared by mixing freeze dried peptide with a pH 4.0 5 mM sodium acetate, 250 mM glycerol buffer at room temperature to a nominal concentration of at least 4000-5000 nmol/mL. The pH of the samples was measured and adjusted to pH 4.0 and the samples were allowed to equilibrate at room temperature until next day if not fully dissolved.
Preparation of pH 6.5 samples: The pH 6.5 samples of the CNP compounds were prepared by dissolving the freeze dried peptide in water. While stirring, a part of the peptide solution was transferred to a buffer consisting of 41 mM sodium phosphate and 118 mg/mL glycerol, pH 7.5-8.0, followed by addition of diluted sodium hydroxide followed by another part of the peptide solution and further addition of diluted sodium hydroxide. This procedure was repeated until all of the peptide solution had been added where a nominal concentration of at least 4000-5000 nmol/mL had been reached and the buffer composition was 8 mM sodium phosphate, 23 mg/mL glycerol. The pH of the samples were measured and adjusted to pH 6.5 and the samples were allowed to equilibrate at room temperature until next day if not fully dissolved.
Procedure: Samples at pH 4.0 were prepared as described above and the compound concentration in the supernatant was determined using CAD (Method F, CAD02).
Samples at pH 6.5 were prepared as described above and peptide concentration in the supernatant was determined by CAD (Method F, CAD02).
As a reminder, the solubility is the dissolved amount per volume that the medium holds. As to `CC[C@H](C)[C@@H]1NC(=O)[C@H](CCCNC(=N)N)NC(=O)[C@H](CC(=O)O)NC(=O)[C@H](CC(C)C)NC(=O)[C@@H]2CCCN2C(=O)[C@H](CC(C)C)NC(=O)CNC(=O)[C@H](Cc2ccccc2)NC(=O)[C@@H](NC(=O)CNC(=O)[C@H](CO)NC(=O)[C@H](CO)NC(=O)[C@H](CC(C)C)NC(=O)CNC(=O)[C@H](CCCCN)NC(=O)[C@H](CCCCN)NC(=O)[C@H](CCC(N)=O)NC(=O)[C@H](C)NC(=O)CNC(=O)[C@H](CCC(=O)O)NC(=O)[C@H](Cc2ccc(O)cc2)NC(=O)[C@H](CO)NC(=O)[C@H](CCCNC(=N)N)NC(=O)[C@H](C)NC(=O)[C@H](CCC(N)=O)NC(=O)[C@@H]2CCCN2C(=O)[C@H](Cc2c[nH]cn2)NC(=O)[C@H](CCC(=O)O)NC(=O)[C@H](CCC(N)=O)NC(=O)COCCOCCNC(=O)COCCOCCNC(=O)CC[C@H](NC(=O)CCCCCCCCCCCCCCCCC(=O)O)C(=O)O)CSSC[C@@H](C(=O)O)NC(=O)CNC(=O)[C@H](CC(C)C)NC(=O)CNC(=O)[C@H](CO)NC(=O)[C@H](CC(C)C)NC(=O)[C@H](CO)NC(=O)CNC1=O` [compound 1379] ({C18 diacid-γGlu-AEEA-AEEA}-QEHPQARSYEGAQKKGLSSGCFGLPLDRIGSLSGLGC-OH; disulfide 21-37; C-terminus assumed), the solubility came to 2670 µM (≈ 12200 µg/mL).

For `CC[C@H](C)[C@@H]1NC(=O)[C@H](CCCNC(=N)N)NC(=O)[C@H](CC(=O)O)NC(=O)[C@H](CC(C)C)NC(=O)[C@@H]2CCCN2C(=O)[C@H](CC(C)C)NC(=O)CNC(=O)[C@H](Cc2ccccc2)NC(=O)[C@@H](NC(=O)CNC(=O)[C@H](CCCCN)NC(=O)[C@H](CO)NC(=O)[C@H](CC(C)C)NC(=O)CNC(=O)[C@H](CCCCN)NC(=O)[C@H](CCCCN)NC(=O)[C@H](CCC(N)=O)NC(=O)[C@H](C)NC(=O)CNC(=O)[C@H](CCC(=O)O)NC(=O)[C@H](Cc2ccc(O)cc2)NC(=O)COCCOCCNC(=O)COCCOCCNC(=O)COCCOCCNC(=O)COCCOCCNC(=O)CC[C@H](NC(=O)CCCCCCCCCCCCCCCCC(=O)O)C(=O)O)CSSC[C@@H](C(=O)O)NC(=O)CNC(=O)[C@H](CC(C)C)NC(=O)CNC(=O)[C@H](CO)NC(=O)[C@H](CC(C)C)NC(=O)[C@H](CO)NC(=O)CNC1=O` [compound 1375] ({C18 diacid-γGlu-AEEA-AEEA-AEEA-AEEA}-YEGAQKKGLSKGCFGLPLDRIGSLSGLGC-OH; disulfide 13-29; C-terminus assumed), the solubility was 3130 µM (≈ 12400 µg/mL). The same measure, in the same setting: under `CC[C@H](C)[C@@H]1NC(=O)[C@H](CCCNC(=N)N)NC(=O)[C@H](CC(=O)O)NC(=O)[C@H](CC(C)C)NC(=O)[C@@H]2CCCN2C(=O)[C@H](CC(C)C)NC(=O)CNC(=O)[C@H](Cc2ccccc2)NC(=O)[C@@H](NC(=O)CNC(=O)[C@H](CCCCN)NC(=O)[C@H](CO)NC(=O)CNC(=O)CNC(=O)[C@H](CCCCN)NC(=O)[C@H](CCCCN)NC(=O)[C@H](CCC(N)=O)NC(=O)[C@H](C)NC(=O)CNC(=O)[C@H](CCC(=O)O)NC(=O)[C@H](Cc2ccc(O)cc2)NC(=O)COCCOCCNC(=O)COCCOCCNC(=O)CC[C@H](NC(=O)CCCCCCCCCCCCCCCCC(=O)O)C(=O)O)CSSC[C@@H](C(=O)O)NC(=O)CNC(=O)[C@H](CC(C)C)NC(=O)CNC(=O)[C@H](CO)NC(=O)[C@H](CC(C)C)NC(=O)[C@H](CO)NC(=O)CNC1=O` [compound 1377] ({C18 diacid-γGlu-AEEA-AEEA}-YEGAQKKGGSKGCFGLPLDRIGSLSGLGC-OH; disulfide 13-29) stands 443 µM (≈ 1600 µg/mL); under `CC[C@H](C)[C@@H]1NC(=O)[C@H](CCCNC(=N)N)NC(=O)[C@H](CC(=O)O)NC(=O)[C@H](CC(C)C)NC(=O)[C@@H]2CCCN2C(=O)[C@H](CC(C)C)NC(=O)CNC(=O)[C@H](Cc2ccccc2)NC(=O)[C@@H](NC(=O)CNC(=O)[C@H](CO)NC(=O)[C@H](CO)NC(=O)[C@@H](NC(=O)CNC(=O)[C@@H](NC(=O)[C@H](CCCCN)NC(=O)[C@H](CCC(N)=O)NC(=O)[C@H](C)NC(=O)CNC(=O)[C@H](Cc2c[nH]cn2)NC(=O)[C@H](Cc2ccc(O)cc2)NC(=O)[C@H](CCCCN)NC(=O)[C@H](CCCNC(=N)N)NC(=O)[C@H](C)NC(=O)COCCOCCNC(=O)COCCOCCNC(=O)CC[C@H](NC(=O)CC[C@H](NC(=O)CCCCCCCCCCCCCCCCC(=O)O)C(=O)O)C(=O)O)[C@@H](C)O)C(C)C)CSSC[C@@H](C(=O)O)NC(=O)CNC(=O)[C@H](CC(C)C)NC(=O)CNC(=O)[C@H](CO)NC(=O)[C@H](CC(C)C)NC(=O)[C@H](CO)NC(=O)CNC1=O` [compound 1354] ({C18 diacid-γGlu-γGlu-AEEA-AEEA}-ARKYHGAQKTGVSSGCFGLPLDRIGSLSGLGC-OH; disulfide 16-32), 440 µM (≈ 1800 µg/mL); under `CC[C@H](C)[C@@H]1NC(=O)[C@H](CCCNC(=N)N)NC(=O)[C@H](CC(=O)O)NC(=O)[C@H](CC(C)C)NC(=O)[C@@H]2CCCN2C(=O)[C@H](CC(C)C)NC(=O)CNC(=O)[C@H](Cc2ccccc2)NC(=O)[C@@H](NC(=O)CNC(=O)[C@H](CO)NC(=O)[C@H](CO)NC(=O)[C@H](CC(C)C)NC(=O)CNC(=O)[C@H](CCCCN)NC(=O)[C@H](CCCCN)NC(=O)[C@H](CCC(N)=O)NC(=O)[C@H](C)NC(=O)CNC(=O)[C@H](CCCCN)NC(=O)[C@H](Cc2ccc(O)cc2)NC(=O)[C@H](CCCCN)NC(=O)[C@H](CCCNC(=N)N)NC(=O)[C@H](C)NC(=O)CC[C@H](NC(=O)CC[C@H](NC(=O)CC[C@H](NC(=O)CC[C@H](NC(=O)CCCCCCCCCCCCCCCCC(=O)O)C(=O)O)C(=O)O)C(=O)O)C(=O)O)CSSC[C@@H](C(=O)O)NC(=O)CNC(=O)[C@H](CC(C)C)NC(=O)CNC(=O)[C@H](CO)NC(=O)[C@H](CC(C)C)NC(=O)[C@H](CO)NC(=O)CNC1=O` [compound 1386] ({C18 diacid-γGlu-γGlu-γGlu-γGlu}-ARKYKGAQKKGLSSGCFGLPLDRIGSLSGLGC-OH; disulfide 16-32), 490 µM (≈ 2000 µg/mL). As to `CC[C@H](C)[C@@H]1NC(=O)[C@H](CCCNC(=N)N)NC(=O)[C@H](CC(=O)O)NC(=O)[C@H](CC(C)C)NC(=O)[C@@H]2CCCN2C(=O)[C@H](CC(C)C)NC(=O)CNC(=O)[C@H](Cc2ccccc2)NC(=O)[C@@H](NC(=O)CNC(=O)[C@H](CCCCN)NC(=O)[C@H](CO)NC(=O)[C@@H](NC(=O)CNC(=O)[C@@H](NC(=O)[C@H](Cc2c[nH]cn2)NC(=O)[C@H](CCC(N)=O)NC(=O)[C@H](C)NC(=O)CNC(=O)[C@H](Cc2c[nH]cn2)NC(=O)[C@H](Cc2ccc(O)cc2)NC(=O)[C@H](CCCCN)NC(=O)[C@H](CCCNC(=N)N)NC(=O)[C@H](C)NC(=O)COCCOCCNC(=O)COCCOCCNC(=O)CC[C@H](NC(=O)CC[C@H](NC(=O)CC[C@H](NC(=O)CCCCCCCCCCCCCCCCC(=O)O)C(=O)O)C(=O)O)C(=O)O)[C@@H](C)O)C(C)C)CSSC[C@@H](C(=O)O)NC(=O)CNC(=O)[C@H](CC(C)C)NC(=O)CNC(=O)[C@H](CO)NC(=O)[C@H](CC(C)C)NC(=O)[C@H](CO)NC(=O)CNC1=O` [compound 1420] ({C18 diacid-γGlu-γGlu-γGlu-AEEA-AEEA}-ARKYHGAQHTGVSKGCFGLPLDRIGSLSGLGC-OH; disulfide 16-32), the solubility was determined as 1410 µM (≈ 6000 µg/mL).

The nature of another data set: Thioflavin T (ThT) assay: lagtime and peptide recovery. Type of data set: physicochemical. The note with it: ThT assay, pH 6.5, 37° C.; assay terminated after 45 hours. An excerpt:
The ThT assay was used to evaluate physical stability of the CNP compounds and their suitability for liquid formulation. Low physical stability of peptides may lead to amyloid fibril formation, which is observed as well-ordered, thread-like macromolecular structures in the sample eventually resulting in gel formation. This has traditionally been tested by visual inspection of the sample. However, that kind of measurement is very subjective and depending on the observer. Therefore, the application of a small molecule indicator probe is much more advantageous. Thioflavin T (ThT) is such a probe and has a distinct fluorescence signature when binding to fibrils [Naiki et al. (1989) Anal. Biochem. 177, 244-249; LeVine (1999) Methods. Enzymol. […], 274-284].
Procedure: Thioflavin T was added to the supernatant samples from Example 5 (pH 4.0 and 6.5) using an aqueous ThT stock solution to a final concentration of about 1 μM in the samples. Sample aliquots of 150 μL were placed in a 96 well microtiter plate (Packard OptiPlate™-96, white polystyrene). Usually, two to three replicas of each sample were applied to the plate. The plate was sealed and placed in a fluorescence plate reader (Fluoroskan Ascent FL) and incubated at 37° C. with orbital shaking (960 rpm; 1 mm amplitude). Fluorescence measurements were performed every 20 minutes using excitation through a 444 nm filter and measurement of emission through a 485 nm filter. Between each measurement, the plate was shaken and heated as described above and the assay was terminated after 45 hours. Fluorescence measurements for each microtiter plate well were plotted against time and the lag-time (time until an increase in ThT fluorescence was observed) was estimated.
To assess loss of dissolved peptide following 45h incubation, peptide recovery was measured as the ratio between total peak area after incubation vs. before incubation using the RP-UPLC method described below.
Measurement of LagTime and Peptide recovery % using RP-UPLC: RP-UPLC was conducted using an Acquity UPLC BEH C18 1.7 μm (2.1×30 mm) Waters column (Eluent A: 0.1% v/v % TFA in water; Eluent B: 0.1% v/v TFA in acetonitrile/water 4:1) with gradient elution (0 min: 95% A; 2 min: 20% A; 2.3 min: 20% A; 2.4 min: 95% A; 9 min: 95% A) in a flow rate of 0.9 mL/min and a column temperature of 30° C. UV-detection at 215 nm was used to assess the total peptide area.
Samples at pH 4.0 were prepared as described in Example 5 and subjected to the ThT assay as described above.
Samples at pH 6.5 were prepared as described in Example 5 and subjected to the ThT assay as described above.
For `CC[C@H](C)[C@@H]1NC(=O)[C@H](CCCNC(=N)N)NC(=O)[C@H](CC(=O)O)NC(=O)[C@H](CC(C)C)NC(=O)[C@@H]2CCCN2C(=O)[C@H](CC(C)C)NC(=O)CNC(=O)[C@H](Cc2ccccc2)NC(=O)[C@@H](NC(=O)CNC(=O)[C@H](CCCCN)NC(=O)[C@H](CO)NC(=O)[C@H](CC(C)C)NC(=O)CNC(=O)[C@H](CCCCN)NC(=O)[C@H](CCCCN)NC(=O)[C@H](CCC(N)=O)NC(=O)[C@H](C)NC(=O)CNC(=O)[C@H](CCC(=O)O)NC(=O)[C@H](Cc2ccc(O)cc2)NC(=O)COCCOCCNC(=O)COCCOCCNC(=O)COCCOCCNC(=O)COCCOCCNC(=O)CC[C@H](NC(=O)CCCCCCCCCCCCCCCCC(=O)O)C(=O)O)CSSC[C@@H](C(=O)O)NC(=O)CNC(=O)[C@H](CC(C)C)NC(=O)CNC(=O)[C@H](CO)NC(=O)[C@H](CC(C)C)NC(=O)[C@H](CO)NC(=O)CNC1=O` [compound 1375] ({C18 diacid-γGlu-AEEA-AEEA-AEEA-AEEA}-YEGAQKKGLSKGCFGLPLDRIGSLSGLGC-OH; disulfide 13-29; C-terminus assumed), the “LagTime (h) at pH 6.5” value stood at 45 h.
